# In patent publication US11214803B2, “Modulators of YAP1 expression” (Ionis Pharmaceuticals, Inc., priority 2019, dated 2022):
# Strand notation (5' to 3'): a small letter for the sugar, then the base; units joined by * are phosphorothioate-linked, units joined directly phosphodiester-linked; [ ] holds rarer units or linkages, { } end groups; capitals alone tell only the bases. k = constrained ethyl (cEt); [5mC] = 5-methylcytosine; d = 2'-deoxy (DNA)
# Test system: Yap1 mRNA
# Test: Antisense inhibition of human Yap1 in A-431 cells by cEt gapmers, single dose (Example 2, RTS4814)
# Assay type: cell-based
# How it was run: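 Read-out is Yap1 mRNA as percent of untreated cells, by real-time RT-PCR (probe set RTS4814) normalized to total RNA via RIBOGREEN. Cells were A-431 dosed with 2,000 nM gapmer without transfection for approximately 48 hours.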
# [1] = Table 25, Yap1 mRNA as percent of untreated control, 3-10-3 cEt gapmers targeting SEQ ID NO.: 1, and 2
# [2] = Table 20, Yap1 mRNA, percent of untreated control, 3-10-3 cEt gapmers targeting SEQ ID NO.: 1 and 2
# [3] = Table 6, A-431 cells, 5,000 cells per well, free uptake, 2,000 nM modified oligonucleotide, approx. 48 hours, RTS4814, normalized to RIBOGREEN, Yap1 mRNA relative to untreated control cells
# [4] = Table 33, Yap1 mRNA, percent of untreated control, 3-10-3 cEt gapmers targeting SEQ ID NO.: 1, and 2
# [5] = Table 19, A-431 cells, 5,000 cells per well, free uptake, 2,000 nM modified oligonucleotide, approx. 48 hours, RTS4814, normalized to RIBOGREEN, Yap1 mRNA as percent of untreated control
# [6] = Table 32, Yap1 mRNA, percent of untreated control, 3-10-3 cEt gapmers targeting SEQ ID NO.: 1, and 2
# [7] = Table 24, Yap1 mRNA as percent of untreated control, 3-10-3 cEt gapmers targeting SEQ ID NO.: 1, and 2
# [8] = Table 21, Yap1 mRNA, percent of untreated control, 3-10-3 cEt gapmers targeting SEQ ID NO.: 1 and 2
# [9] = Yap1 mRNA as percent of untreated control, A-431 cells, 3-10-3 cEt gapmers targeting SEQ ID NO.: 1, and 2, Table 31
# [10] = Table 23, Yap1 mRNA as percent of untreated control, 3-10-3 cEt gapmers, single dose
# [11] = Table 22, Yap1 mRNA as percent of untreated control, 3-10-3 cEt gapmers, single dose
substance,measurement,setting,value
1074379 (antisense kT*kG*kG*dG*dA*dA*dA*d[5mC]*dG*dG*dT*dT*d[5mC]*kT*kG*k[5mC]) [Compound 1074379],YAP1 (% UTC),[1],20 % UTC
1074182 (antisense kG*k[5mC]*k[5mC]*d[5mC]*dG*dG*dG*dA*dT*d[5mC]*d[5mC]*dA*dT*kG*kG*k[5mC]) [Compound 1074182],YAP1 (% UTC),[2],82 % UTC
716561 (kA*kA*kG*dG*dT*dA*dT*dT*dA*d[5mC]*dA*dT*dA*kA*kG*kA; antisense) [Compound 716561],YAP1 (% UTC),[3],58 % UTC
1075603 (antisense kT*kA*kT*dG*dA*dA*d[5mC]*dA*dA*dG*dT*dA*dT*kG*kA*kG) [compound 1075603],YAP1 (% UTC),[4],35 % UTC
1075846 (kG*kA*kT*dT*dA*dA*dG*dA*dG*d[5mC]*d[5mC]*dT*dA*kT*k[5mC]*kT; antisense) [Compound 1075846],YAP1 (% UTC),[2],96 % UTC
1074347 (antisense kG*kT*kT*dA*dA*dG*dG*dA*dA*dA*dG*dG*dA*kT*k[5mC]*kT) [Compound 1074347],YAP1 (% UTC),[1],34 % UTC
1075685 (k[5mC]*kA*kT*dA*dA*dT*d[5mC]*dA*dA*dA*dG*dG*dG*kT*kG*k[5mC]; antisense) [Compound 1075685],YAP1 (% UTC),[5],60 % UTC
1074994 (antisense kA*kA*kA*d[5mC]*dT*dA*dA*dA*dT*dG*dG*dA*d[5mC]*k[5mC]*kG*kG) [compound 1074994],YAP1 (% UTC),[6],94 % UTC
1074154 (antisense k[5mC]*k[5mC]*kA*d[5mC]*dG*dG*dG*d[5mC]*d[5mC]*dG*dA*dG*dG*kT*kG*kG) [Compound 1074154],YAP1 (% UTC),[7],100 % UTC
1075111 (antisense kT*kA*kG*dG*dA*dA*dT*dA*dT*dG*dG*dG*dT*kA*kG*kT) [Compound 1075111],YAP1 (% UTC),[8],5 % UTC
716475 (k[5mC]*kT*kT*d[5mC]*d[5mC]*dA*dA*dA*dA*d[5mC]*dT*dA*dA*kG*kG*k[5mC]; antisense) [Compound 716475],YAP1 (% UTC),"A-431 cells, 5,000 cells per well, free uptake, 2,000 nM modified oligonucleotide, approx. 48 hours, RTS4814, normalized to RIBOGREEN, Table 4, asterisk (*) = targets amplicon region of primer probe set",63 % UTC
1076242 (kA*kT*kG*d[5mC]*dA*dA*dT*dA*dA*dG*dG*dA*dA*k[5mC]*kA*kG; antisense) [compound 1076242],YAP1 (% UTC),[6],33 % UTC
1075057 (antisense k[5mC]*k[5mC]*kT*dT*dA*dG*dG*dA*dG*dT*dA*dG*dA*k[5mC]*kT*kG) [compound 1075057],YAP1 (% UTC),[9],14 % UTC
1074122 (antisense k[5mC]*kT*kG*d[5mC]*dG*dA*dG*dG*d[5mC]*dA*d[5mC]*dT*d[5mC]*kG*kG*kA) [Compound 1074122],YAP1 (% UTC),[7],73 % UTC
1074985 (antisense kA*kA*kT*d[5mC]*dA*d[5mC]*d[5mC]*dT*dT*dT*dT*dA*dT*kT*kG*k[5mC]) [Compound 1074985],YAP1 (% UTC),[10],49 % UTC
1074470 (k[5mC]*k[5mC]*k[5mC]*d[5mC]*d[5mC]*d[5mC]*dA*d[5mC]*d[5mC]*dG*dA*d[5mC]*d[5mC]*k[5mC]*kT*kG; antisense) [Compound 1074470],YAP1 (% UTC),[2],69 % UTC
1075280 (antisense kG*kA*kA*d[5mC]*dT*dA*dT*dA*d[5mC]*dT*dA*dA*d[5mC]*kA*kT*kT) [compound 1075280],YAP1 (% UTC),"Yap1 mRNA as percent of untreated control, A-431 cells, 3-10-3 cEt gapmers targeting SEQ ID NO.: 1, and 2, Table 30",57 % UTC
1076307 (kG*kT*kA*dA*dT*dT*dA*d[5mC]*d[5mC]*dT*d[5mC]*dT*dA*kA*kT*k[5mC]; antisense) [compound 1076307],YAP1 (% UTC),[4],38 % UTC
1075761 (kG*kG*kA*dG*dA*dA*dA*dA*dA*d[5mC]*dT*dA*d[5mC]*kG*kG*kA; antisense) [compound 1075761],YAP1 (% UTC),[9],13 % UTC
1076491 (antisense kA*kG*k[5mC]*d[5mC]*dA*dA*dA*dA*dT*dA*dG*dG*dT*kG*kA*kG) [Compound 1076491],YAP1 (% UTC),[1],12 % UTC
1074949 (antisense kG*kT*kG*dA*dT*dT*dT*dT*dT*dT*d[5mC]*dT*dG*kA*kG*kT) [Compound 1074949],YAP1 (% UTC),[5],31 % UTC
1074950 (antisense kA*kT*k[5mC]*dA*dG*dG*dT*dT*dA*dA*dG*dT*dG*kA*kT*kT) [Compound 1074950],YAP1 (% UTC),[2],120 % UTC
1074858 (antisense kA*kA*k[5mC]*dA*dT*dT*dG*dG*dT*dA*d[5mC]*dT*dA*kT*kA*kT) [Compound 1074858],YAP1 (% UTC),[7],23 % UTC
1075558 (kA*kT*kA*dT*dT*dA*dA*dG*dG*dT*dG*dG*d[5mC]*kT*kT*kA; antisense) [Compound 1075558],YAP1 (% UTC),[2],51 % UTC
1075443 (antisense kG*kA*kT*dT*dA*dA*d[5mC]*dA*dG*dA*dG*d[5mC]*dT*kA*kG*kA) [compound 1075443],YAP1 (% UTC),[4],29 % UTC
716396 (k[5mC]*kA*kG*dT*dT*d[5mC]*dT*dT*dG*d[5mC]*dT*dG*dT*kT*kT*k[5mC]; antisense) [Compound 716396],YAP1 (% UTC),[3],123 % UTC
1074821 (kG*kA*kA*dA*dA*dG*dT*dG*dT*dT*dA*dA*dG*k[5mC]*kA*k[5mC]; antisense) [Compound 1074821],YAP1 (% UTC),[5],18 % UTC
1074507 (kA*kT*kA*dA*dT*d[5mC]*dG*dA*dG*dA*dT*dT*dT*kA*kA*kA; antisense) [Compound 1074507],YAP1 (% UTC),[1],74 % UTC
1074633 (antisense kG*kA*kG*dG*d[5mC]*dT*dT*dT*dT*d[5mC]*dA*dT*dA*kG*k[5mC]*kA) [Compound 1074633],YAP1 (% UTC),[10],78 % UTC
1076422 (kG*kA*kA*dT*dT*dA*dT*dG*dA*d[5mC]*d[5mC]*dT*d[5mC]*k[5mC]*kA*kT; antisense) [Compound 1076422],YAP1 (% UTC),[2],13 % UTC
1075729 (kT*kA*kT*dT*dT*dA*dA*dA*dA*dA*dT*dA*dG*k[5mC]*kG*k[5mC]; antisense) [compound 1075729],YAP1 (% UTC),[9],88 % UTC
1075144 (antisense kA*k[5mC]*k[5mC]*d[5mC]*dT*dA*dT*dA*dT*d[5mC]*d[5mC]*dT*dA*kT*kA*kT) [Compound 1075144],YAP1 (% UTC),[11],82 % UTC
716543 (antisense kT*kA*kT*dT*dT*dG*dT*dA*dG*d[5mC]*dA*dA*dA*kG*kT*k[5mC]) [Compound 716543],YAP1 (% UTC),[3],35 % UTC
1075751 (kG*kA*kG*dG*dA*dA*d[5mC]*dA*dA*dG*dA*dT*d[5mC]*kT*k[5mC]*kA; antisense) [Compound 1075751],YAP1 (% UTC),[8],72 % UTC
1075463 (antisense k[5mC]*kT*kT*dA*dA*dT*d[5mC]*d[5mC]*dA*dA*dA*dG*d[5mC]*kT*kT*k[5mC]) [Compound 1075463],YAP1 (% UTC),[8],34 % UTC
1076330 (kG*kA*kA*dT*dT*dA*dT*dA*d[5mC]*dT*dG*dG*d[5mC]*kT*kA*k[5mC]; antisense) [Compound 1076330],YAP1 (% UTC),[7],3 % UTC
1075592 (k[5mC]*kG*kT*dA*dA*dT*dA*dA*dT*d[5mC]*dA*d[5mC]*d[5mC]*kT*kT*kA; antisense) [Compound 1075592],YAP1 (% UTC),[11],55 % UTC
716563 (kT*kG*kA*dA*dG*d[5mC]*dA*dA*dG*dT*dT*d[5mC]*dT*k[5mC]*kA*kA; antisense) [Compound 716563],YAP1 (% UTC),"Table 5, A-431 cells, 5,000 cells per well, free uptake, 2,000 nM modified oligonucleotide, approx. 48 hours, RTS4814, normalized to RIBOGREEN, Yap1 mRNA relative to untreated control cells",126 % UTC
1075281 (antisense k[5mC]*kA*kG*d[5mC]*dA*dA*dA*dA*dG*dT*dA*d[5mC]*d[5mC]*kA*kT*kG) [compound 1075281],YAP1 (% UTC),[9],36 % UTC
1075622 (kT*k[5mC]*kT*dT*dA*dT*dA*d[5mC]*d[5mC]*dT*dA*dT*d[5mC]*kT*kT*k[5mC]; antisense) [Compound 1075622],YAP1 (% UTC),[2],56 % UTC
1076548 (antisense k[5mC]*kA*k[5mC]*d[5mC]*dA*dA*d[5mC]*d[5mC]*dT*dG*dT*dT*dA*kA*kG*kG) [Compound 1076548],YAP1 (% UTC),"Table 18, A-431 cells, 5,000 cells per well, free uptake, 2,000 nM modified oligonucleotide, approx. 48 hours, RTS4814, normalized to RIBOGREEN, Yap1 mRNA as percent of untreated control",106 % UTC
1074405 (antisense kG*k[5mC]*k[5mC]*dT*dG*dA*dA*dA*dA*d[5mC]*dT*dG*d[5mC]*kA*kA*k[5mC]) [Compound 1074405],YAP1 (% UTC),[5],27 % UTC
1076294 (kT*kA*kT*dA*dT*dT*dA*dG*dT*dG*d[5mC]*d[5mC]*d[5mC]*k[5mC]*k[5mC]*kT; antisense) [Compound 1076294],YAP1 (% UTC),[2],6 % UTC
1075079 (antisense k[5mC]*kA*k[5mC]*d[5mC]*dA*dA*dA*dA*dG*d[5mC]*dT*dT*dA*kG*kT*kT) [Compound 1075079],YAP1 (% UTC),[8],40 % UTC
1076552 (antisense kA*kT*kG*dT*dA*dT*dA*dA*dA*dT*dA*d[5mC]*d[5mC]*kA*kG*kG) [Compound 1076552],YAP1 (% UTC),[11],7 % UTC
